Patent US20240368221A1, “IMPATIENS BALSAMINA-DERIVED ANTI-BACTERIAL PEPTIDE AND ANTI-BACTERIAL COMPOSITION CONTAINING SAME” (V&CO CO., LTD., priority 2021, published 2024)
In brackets after ≈: the same amount, converted by molar mass. Like-named read-outs stand apart in the source and are kept apart here. Where a SMILES comes first, the peptide text is derived from it.

Key:
[1] = tested on: Aspergillus niger KCTC 6317; assay type: cell-based
Description: (§1) To examine the antimicrobial and antifungal activity of the six types of peptide derivatives prepared in Example 1, antimicrobial and antifungal activity was analyzed using three types of bacterial strains and two types of fungal strains.
(§2) Specifically, to analyze antimicrobial and antifungal activity, a minimal inhibitory concentration (MIC) was measured. The three types of bacterial strains included Escherichia coli KCCM 41290, Staphylococcus aureus KCTC 1621, and Cutibacterium acnes KCTC 3314, and the two types of fungal strains included Candida albicans KCTC 17712, and Aspergillus niger KCTC 6317. The culture of Escherichia coli and Staphylococcus aureus was performed in Luria-Bertani (LB) medium (BD Difco), and the culture of Cutibacterium acnes was performed in reinforced clostridial medium (RCM, BD Difco). The culture of Candida albicans and Aspergillus niger was performed in potato dextrose (PD) medium (BD Difco). The pre-cultured microorganisms or spores were diluted in a medium to 5×10^3 CFU/mL, and each of the six types of peptide derivatives prepared in Example 1 was added at a predetermined concentration. Afterward, a bacterial strain was cultured at 37° C., a fungal strain was cultured at 25° C. for 18 to 24 hours, and optical densities (OD600) were measured using a microplate reader. Fluorescence values (Ex560 and Em600), instead of optical densities, were measured after adding a resazurin reagent to the Aspergillus niger medium to have a concentration of 100 μM. As a control, Ib-AMP4 was used, and the analysis results were expressed as the average of three repeated experiments.

[2] = tested on: Candida albicans KCTC 17712; assay type: cell-based
Description: as §1, §2

[3] = tested on: Staphylococcus aureus KCTC 1621; assay type: cell-based
Description: as §1, §2

[4] = tested on: Escherichia coli KCCM 41290; assay type: cell-based
Description: as §1, §2

[5] = tested on: Cutibacterium acnes KCTC 3314; assay type: cell-based
Description: as §1, §2

[6] = Cytotoxicity, WST-1 cell viability; assay type: cell-based, murine; settings: mouse, L929 cells (murine fibroblast cell line)
Description: (§3) Specifically, cytotoxicity was evaluated using a skin cell line, L929 cells (murine fibroblast cell line). In addition, as comparative groups, Ib-AMP4 and the bee venom-derived AMP, melittin, known to be highly cytotoxic, were used. The L929 cells were cultured in RPMI 1640 medium (Gibco), which was supplemented with 10% FBS (Sigma), antibiotic-antimycotic cocktail, penicillin G (100 IU/mL), streptomycin (100 μg/mL), and amphotericin B (250 ng/ml; Gibco), at 37° C. in 5% CO2. The cells were seeded in a 96-well plate at 1×10^4 cell/well, incubated for 18 hours, treated with each peptide at 1.25 to 160 µg/mL, and then incubated for 24 hours. 10 μL of WST-1 reagent was added to 100 μL of the medium and allowed to react at 37° C. for 30 minutes, and then absorbance (A450) was measured at 450 nm using a microplate reader. Instead of the peptides, 0.1% Triton X-100 and PBS were used as positive and negative controls, respectively, and cell viability was calculated based on the following equation: % Cell viability=[(A450 in peptide solution−A450 in PBS)/(A450 in 0.1% Triton X−100-A450 in PBS)]×100. The analysis results were expressed as mean±S.D of three repeated experiments.

[7] = tested on: L929 cells (murine fibroblast cell line); assay: Cytotoxicity, WST-1 cell viability; assay type: cell-based
Description: as §3

[8] = tested on: sheep red blood cells (sRBCs); assay: Hemolytic activity; assay type: cell-based; settings: for Hemolytic Activity (%): 5% sRBC, 30 minutes, room temperature
Description: Specifically, hemolytic activity was analyzed using sheep red blood cells (sRBCs). In addition, as comparative groups, Ib-AMP4 and melittin were used. Defibrinated sheep blood (MB cells) was centrifuged (4,000×g, 10 min, 4° C.), washed with PBS three times, and suspended in PBS, thereby preparing an sRBC solution (10% sRBC). 5% sRBC and each peptide were mixed to have a final concentration of 1.25 to 160 μg/mL, allowed to react at room temperature for 30 minutes, and centrifuged to collect a supernatant. The absorbance (A414) of hemoglobin eluted from the red blood cells in the collected supernatant was measured at 414 nm. 0.1% Triton X−100 was used as a positive control, PBS was used as a negative control, and hemolytic activity (% Hemolysis) was calculated based on the following equation: % Hemolysis=[(A414 in peptide solution−A414 in PBS)/(A414 in 0.1% Triton X−100−A414 in PBS)]×100.

[9] = Aspergillus niger, PD medium, 25° C., 18 to 24 hours, resazurin fluorescence
[10] = Candida albicans, PD medium, 25° C., 18 to 24 hours, OD600
[11] = Staphylococcus aureus, LB medium, 37° C., 18 to 24 hours, OD600
[12] = Escherichia coli, LB medium, 37° C., 18 to 24 hours, OD600
[13] = Cutibacterium acnes, RCM, 37° C., 18 to 24 hours, OD600

N=C(N)NCCC[C@H](NC(=O)[C@H](CCCNC(=N)N)NC(=O)[C@H](CS)NC(=O)[C@H](Cc1ccc(O)cc1)NC(=O)[C@H](CCCNC(=N)N)NC(=O)[C@H](CCCNC(=N)N)NC(=O)CNC(=O)[C@@H]1CCCN1C(=O)CN)C(N)=O [VESCA1] (H-GPGRRYCRR-NH2; N-terminus assumed)
MIC [1, 9]: 60 µg/mL (≈ 53.6 µM)
MIC [2, 10]: 40 µg/mL (≈ 35.7 µM)
MIC [3, 11]: >100 µg/mL
MIC [4, 12]: >100 µg/mL
MIC [5, 13]: >100 µg/mL

C[C@H](NC(=O)[C@H](Cc1ccc(O)cc1)NC(=O)[C@H](CCCNC(=N)N)NC(=O)[C@H](CCCNC(=N)N)NC(=O)CNC(=O)[C@@H]1CCCN1C(=O)CN)C(=O)N[C@@H](CCCNC(=N)N)C(=O)N[C@@H](CCCNC(=N)N)C(N)=O [VESCA2] (H-GPGRRYARR-NH2; N-terminus assumed)
MIC [1, 9]: 80 µg/mL (≈ 73.6 µM)
MIC [2, 10]: 60 µg/mL (≈ 55.2 µM)
MIC [3, 11]: >100 µg/mL
MIC [4, 12]: >100 µg/mL
MIC [5, 13]: >100 µg/mL

N=C(N)NCCC[C@H](NC(=O)[C@H](CCCNC(=N)N)NC(=O)[C@H](Cc1c[nH]c2ccccc12)NC(=O)[C@H](Cc1ccc(O)cc1)NC(=O)[C@H](CCCNC(=N)N)NC(=O)[C@H](CCCNC(=N)N)NC(=O)[C@H](Cc1c[nH]c2ccccc12)NC(=O)[C@@H]1CCCN1C(=O)CN)C(N)=O [VESCA3] (H-GPWRRYWRR-NH2)
viability at 24 h, 1.25 µg/mL [6]: 96.7%
viability at 24 h, 2.5 µg/mL [6]: 104%
viability at 24 h, 5 µg/mL [6]: 104%
viability at 24 h, 10 µg/mL [6]: 97.1%
viability at 24 h, 20 µg/mL [6]: 99.7%
viability at 24 h, 40 µg/mL [6]: 91.9%
viability at 24 h, 80 µg/mL [6]: 91.6%
viability at 24 h, 160 µg/mL [6]: 94.9%
viability at 24 h, 160 g/mL [6]: ≥ 90%
cytotoxic activity (in words) [7]: insignificant cytotoxic and hemolytic activity
hemolytic activity (in words) [8]: insignificant cytotoxic and hemolytic activity
MIC ([1]; KCTC 6317): 40 µg/mL (≈ 30 µM)
MIC ([2]; KCTC 17712): 20 µg/mL (≈ 15 µM)
MIC ([3]; KCTC 1621): 5 µg/mL (≈ 3.75 µM)
MIC ([4]; KCCM 41290): 60 µg/mL (≈ 45.1 µM)
MIC ([5]; KCTC 3314): >100 µg/mL

N=C(N)NCCC[C@H](NC(=O)CNC(=O)[C@H](Cc1c[nH]c2ccccc12)NC(=O)[C@H](CCC(=O)O)NC(=O)[C@@H](N)CC(=O)O)C(=O)N[C@@H](CCCNC(=N)N)C(=O)N[C@@H](CS)C(=O)N[C@@H](CS)C(=O)NCC(N)=O [VESCA-NH2] (H-DEWGRRCCG-NH2; N-terminus assumed)
MIC ([1]; KCTC 6317): >100 µg/mL
MIC ([2]; KCTC 17712): >100 µg/mL
MIC ([3]; KCTC 1621): >100 µg/mL
MIC ([4]; KCCM 41290): >100 µg/mL
MIC ([5]; KCTC 3314): >100 µg/mL

N=C(N)NCCC[C@H](NC(=O)[C@H](CCCNC(=N)N)NC(=O)[C@H](CCCCN)NC(=O)[C@H](Cc1c[nH]c2ccccc12)NC(=O)[C@H](CCC(=O)O)NC(=O)[C@@H](N)Cc1ccc(O)cc1)C(=O)N[C@@H](CS)C(=O)N[C@@H](CS)C(=O)N[C@@H](CCCCN)C(N)=O [VESCA-NH4] (H-YEWKRRCCK-NH2; N-terminus assumed)
MIC ([1]; KCTC 6317): >100 µg/mL
MIC ([2]; KCTC 17712): 100 µg/mL (≈ 78.7 µM)
MIC ([3]; KCTC 1621): >100 µg/mL
MIC ([4]; KCCM 41290): >100 µg/mL
MIC ([5]; KCTC 3314): >100 µg/mL

CC[C@H](C)[C@H](NC(=O)CN)C(=O)NCC(=O)N[C@@H](C)C(=O)N[C@H](C(=O)N[C@@H](CC(C)C)C(=O)N[C@@H](CCCCN)C(=O)N[C@H](C(=O)N[C@@H](CC(C)C)C(=O)N[C@H](C(=O)N[C@H](C(=O)NCC(=O)N[C@@H](CC(C)C)C(=O)N1CCC[C@H]1C(=O)N[C@@H](C)C(=O)N[C@@H](CC(C)C)C(=O)N[C@H](C(=O)N[C@@H](CO)C(=O)N[C@@H](Cc1c[nH]c2ccccc12)C(=O)N[C@H](C(=O)N[C@@H](CCCCN)C(=O)N[C@@H](CCCNC(=N)N)C(=O)N[C@@H](CCCCN)C(=O)N[C@@H](CCCNC(=N)N)C(=O)N[C@@H](CCC(N)=O)C(=O)N[C@@H](CCC(N)=O)C(N)=O)[C@@H](C)CC)[C@@H](C)CC)[C@@H](C)O)[C@@H](C)O)C(C)C)C(C)C [Melittin]
viability at 24 h, 1.25 µg/mL ([6]; L929 cells, peptide 1.25 μg/mL, 24 hours, read-out: Relative cell viability (%)): 97.4%
viability at 24 h, 2.5 µg/mL ([6]; L929 cells, peptide 2.5 μg/mL, 24 hours, read-out: Relative cell viability (%)): 51.1%
viability at 24 h, 5 µg/mL ([6]; L929 cells, peptide 5.0 μg/mL, 24 hours, read-out: Relative cell viability (%)): 2.1%
viability at 24 h, 10 µg/mL ([6]; L929 cells, peptide 10 μg/mL, 24 hours, read-out: Relative cell viability (%)): 0.2%
viability at 24 h, 20 µg/mL ([6]; L929 cells, peptide 20 μg/mL, 24 hours, read-out: Relative cell viability (%)): 0.8%
viability at 24 h, 40 µg/mL ([6]; L929 cells, peptide 40 μg/mL, 24 hours, read-out: Relative cell viability (%)): 0.3%
viability at 24 h, 80 µg/mL ([6]; L929 cells, peptide 80 μg/mL, 24 hours, read-out: Relative cell viability (%)): 0.5%
viability at 24 h, 160 µg/mL ([6]; L929 cells, peptide 160 μg/mL, 24 hours, read-out: Relative cell viability (%)): 0.6%
Relative cell viability (%) ([7]; L929 cells, peptide 5.0 μg/mL, 24 hours): 2.1%
Hemolytic Activity (%) ([8]; peptide 1.25 μg/mL): 0.98%
Hemolytic Activity (%) ([8]; peptide 2.5 μg/mL): 3.40%
Hemolytic Activity (%) ([8]; peptide 5.0 μg/mL): 14.0%
Hemolytic Activity (%) ([8]; peptide 10 μg/mL): 25.02%
Hemolytic Activity (%) ([8]; peptide 20 μg/mL): 96.10%
Hemolytic Activity (%) ([8]; peptide 40 μg/mL): 99.36%

CC[C@H](C)[C@H](NC(=O)[C@H](Cc1ccccc1)NC(=O)[C@H](CCCCN)NC(=O)[C@H](CCSC)NC(=O)[C@H](CCCCN)NC(=O)[C@H](CCCNC(=N)N)NC(=O)[C@H](CCCNC(=N)N)NC(=O)[C@@H](NC(=O)[C@H](Cc1c[nH]c2ccccc12)NC(=O)[C@@H](N)CCC(=O)O)C(C)C)C(=O)N[C@@H](CC(N)=O)C(=O)N[C@@H](CO)C(=O)N[C@@H](CC(C)C)C(=O)N[C@@H](Cc1ccc(O)cc1)C(=O)N[C@@H](CO)C(=O)N[C@@H](Cc1c[nH]c2ccccc12)C(N)=O [VESCA-OH3] (H-EWVRRKMKFINSLYSW-NH2; N-terminus assumed)
MIC ([1]; KCTC 6317): 80 µg/mL (≈ 37.3 µM)
MIC ([2]; KCTC 17712): 100 µg/mL (≈ 46.7 µM)
MIC ([3]; KCTC 1621): 5 µg/mL (≈ 2.33 µM)
antimicrobial activity (MIC) ([3]; Staphylococcus aureus, text of b72): 5 µg/mL
MIC [4, 12]: 40 µg/mL (≈ 18.7 µM)
MIC ([5]; KCTC 3314): >100 µg/mL
